# Laboratory results as given in article PMC10177727 (Clinical Drug Investigation, 2023).
# Legend:
# CYP3A = CYP3A (Homo sapiens, UniProt P08684); conditions: pre-clinical in vitro findings
# [1] = ensitrelvir; cited from earlier work
# [2] = Safety and tolerability: treatment-emergent adverse events; assay type: in vivo, healthy Japanese adult participants
# [3] = Ensitrelvir 375/125 mg + midazolam, N = 14
# [4] = Ensitrelvir 375/125 mg + midazolam, N = 14, listed as ensitrelvir
# [5] = Ensitrelvir 750/250 mg + dexamethasone, N = 14
# [6] = Ensitrelvir 750/250 mg + dexamethasone, N = 14, listed as ensitrelvir
# [7] = Ensitrelvir 750/250 mg + prednisolone, N = 14
# Sequence of CYP3A (P08684 2-503): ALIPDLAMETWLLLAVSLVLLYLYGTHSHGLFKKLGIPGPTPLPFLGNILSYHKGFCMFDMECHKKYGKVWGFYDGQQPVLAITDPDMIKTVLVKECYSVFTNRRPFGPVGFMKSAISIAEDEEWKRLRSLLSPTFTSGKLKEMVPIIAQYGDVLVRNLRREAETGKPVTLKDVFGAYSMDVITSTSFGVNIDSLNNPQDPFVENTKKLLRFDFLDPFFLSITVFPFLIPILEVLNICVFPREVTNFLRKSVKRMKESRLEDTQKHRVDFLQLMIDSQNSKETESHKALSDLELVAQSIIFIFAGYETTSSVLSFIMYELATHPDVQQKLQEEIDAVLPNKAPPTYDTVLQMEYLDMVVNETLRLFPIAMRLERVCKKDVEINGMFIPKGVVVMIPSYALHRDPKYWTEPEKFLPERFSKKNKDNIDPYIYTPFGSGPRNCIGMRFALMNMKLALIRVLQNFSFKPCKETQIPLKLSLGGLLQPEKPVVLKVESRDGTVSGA
smiles,measurement,setting,value
"Cn1cnc(Cn2c(=O)[nH]/c(=N\c3cc4cn(C)nc4cc3Cl)n(Cc3cc(F)c(F)cc3F)c2=O)n1 [Ensitrelvir, Ensitrelvir fumaric acid]",reversible inhibitory effect on CYP3A4,CYP3A,no reversible inhibitory effect
same,time-dependent inhibition of CYP3A,CYP3A,time-dependent NADPH-mediated inhibition
same,"t1/2,z",[1],42.2 to 48.1 h
same,"Arthropod sting, Events",[2]; [3],1
same,"Arthropod sting, N (%)",[2]; [3],1 (7.1)
same,"Blood triglycerides increased, Events",[2]; [3],1
same,"Blood triglycerides increased, N (%)",[2]; [3],1 (7.1)
same,"Blood triglycerides increased, events Related to ensitrelvir",[2]; [3],1
same,"Diarrhea, Events",[2]; [3],1
same,"Diarrhea, N (%)",[2]; [3],1 (7.1)
same,"Gastrointestinal disorders, Events",[2]; [3],1
same,"Gastrointestinal disorders, N (%)",[2]; [3],1 (7.1)
same,"High-density lipoprotein decreased, Events",[2]; [3],8
same,"High-density lipoprotein decreased, N (%)",[2]; [3],8 (57.1)
same,"High-density lipoprotein decreased, events Related to ensitrelvir",[2]; [3],8
same,"Injury, poisoning and procedural complications, Events",[2]; [3],1
same,"Injury, poisoning and procedural complications, N (%)",[2]; [3],1 (7.1)
same,"Investigations, Events",[2]; [3],9
same,"Investigations, N (%)",[2]; [3],8 (57.1)
same,"Investigations, events Related to ensitrelvir",[2]; [3],9
same,"Nervous system disorders, Events",[2]; [3],10
same,"Nervous system disorders, N (%)",[2]; [3],9 (64.3)
same,"Nervous system disorders, events Related to ensitrelvir",[2]; [3],2
same,"Participants with any TEAE, Events",[2]; [3],21
same,"Participants with any TEAE, N (%)",[2]; [3],11 (78.6)
same,"Participants with any TEAE, events Related to ensitrelvir",[2]; [3],11
same,"Somnolence, Events",[2]; [3],10
same,"Somnolence, N (%)",[2]; [3],9 (64.3)
same,"Somnolence, events Related to ensitrelvir",[2]; [3],2
same,"Arthropod sting, N (%)",[2]; [4],1
same,"Blood triglycerides increased, N (%)",[2]; [4],1
same,"Diarrhea, N (%)",[2]; [4],1
same,"High-density lipoprotein decreased, N (%)",[2]; [4],8
same,"Participants with any TEAE, N (%)",[2]; [4],11
same,"Somnolence, N (%)",[2]; [4],9
same,"Atrioventricular block, Events",[2]; [5],1
same,"Atrioventricular block, N (%)",[2]; [5],1 (7.1)
same,"Blood triglycerides increased, Events",[2]; [5],4
same,"Blood triglycerides increased, N (%)",[2]; [5],4 (28.6)
same,"Blood triglycerides increased, events Related to ensitrelvir",[2]; [5],3
same,"Cardiac disorders, Events",[2]; [5],1
same,"Cardiac disorders, N (%)",[2]; [5],1 (7.1)
same,"Dizziness, Events",[2]; [5],1
same,"Dizziness, N (%)",[2]; [5],1 (7.1)
same,"Dizziness, events Related to ensitrelvir",[2]; [5],1
same,"Headache, Events",[2]; [5],1
same,"Headache, N (%)",[2]; [5],1 (7.1)
same,"Headache, events Related to ensitrelvir",[2]; [5],1
same,"High-density lipoprotein decreased, Events",[2]; [5],5
same,"High-density lipoprotein decreased, N (%)",[2]; [5],5 (35.7)
same,"High-density lipoprotein decreased, events Related to ensitrelvir",[2]; [5],5
same,"Investigations, Events",[2]; [5],9
same,"Investigations, N (%)",[2]; [5],7 (50.0)
same,"Investigations, events Related to ensitrelvir",[2]; [5],8
same,"Nervous system disorders, Events",[2]; [5],2
same,"Nervous system disorders, N (%)",[2]; [5],1 (7.1)
same,"Nervous system disorders, events Related to ensitrelvir",[2]; [5],2
same,"Papule, Events",[2]; [5],1
same,"Papule, N (%)",[2]; [5],1 (7.1)
same,"Papule, events Related to ensitrelvir",[2]; [5],1
same,"Participants with any TEAE, Events",[2]; [5],13
same,"Participants with any TEAE, N (%)",[2]; [5],9 (64.3)
same,"Participants with any TEAE, events Related to ensitrelvir",[2]; [5],11
same,"Skin and subcutaneous tissue disorders, Events",[2]; [5],1
same,"Skin and subcutaneous tissue disorders, N (%)",[2]; [5],1 (7.1)
same,"Skin and subcutaneous tissue disorders, events Related to ensitrelvir",[2]; [5],1
same,"Atrioventricular block, N (%)",[2]; [6],1
same,"Blood triglycerides increased, N (%)",[2]; [6],4
same,"Dizziness, N (%)",[2]; [6],1
same,"Headache, N (%)",[2]; [6],1
same,"Papule, N (%)",[2]; [6],1
same,"Participants with any TEAE, N (%)",[2]; [6],9
same,"Atrioventricular block, Events",[2]; [7],0
same,"Atrioventricular block, N (%)",[2]; [7],0
same,"Atrioventricular block, events Related to ensitrelvir",[2]; [7],0
same,"Blood triglycerides increased, Events",[2]; [7],0
same,"Blood triglycerides increased, N (%)",[2]; [7],0
same,"Blood triglycerides increased, events Related to ensitrelvir",[2]; [7],0
same,"Cardiac disorders, Events",[2]; [7],0
same,"Cardiac disorders, N (%)",[2]; [7],0
same,"Cardiac disorders, events Related to ensitrelvir",[2]; [7],0
same,"Dizziness, Events",[2]; [7],0
same,"Dizziness, N (%)",[2]; [7],0
same,"Dizziness, events Related to ensitrelvir",[2]; [7],0
same,"Headache, Events",[2]; [7],0
same,"Headache, N (%)",[2]; [7],0
same,"Headache, events Related to ensitrelvir",[2]; [7],0
same,"High-density lipoprotein decreased, Events",[2]; [7],14
same,"High-density lipoprotein decreased, N (%)",[2]; [7],14 (100.0)
same,"High-density lipoprotein decreased, events Related to ensitrelvir",[2]; [7],14
same,"Investigations, Events",[2]; [7],14
same,"Investigations, N (%)",[2]; [7],14 (100.0)
same,"Investigations, events Related to ensitrelvir",[2]; [7],14
same,"Nervous system disorders, Events",[2]; [7],0
same,"Nervous system disorders, N (%)",[2]; [7],0
same,"Nervous system disorders, events Related to ensitrelvir",[2]; [7],0
same,"Papule, Events",[2]; [7],0
same,"Papule, N (%)",[2]; [7],0
same,"Papule, events Related to ensitrelvir",[2]; [7],0
same,"Participants with any TEAE, Events",[2]; [7],14
same,"Participants with any TEAE, N (%)",[2]; [7],14 (100.0)
same,"Participants with any TEAE, events Related to ensitrelvir",[2]; [7],14
same,"Skin and subcutaneous tissue disorders, Events",[2]; [7],0
same,"Skin and subcutaneous tissue disorders, N (%)",[2]; [7],0
same,"Skin and subcutaneous tissue disorders, events Related to ensitrelvir",[2]; [7],0
same,"Participants with any TEAE, N (%)","[2]; Ensitrelvir 750/250 mg + prednisolone, N = 14, listed as ensitrelvir",14
same,serious TEAEs,[2]; all cohorts,no serious TEAEs
same,tolerability,[2]; multiple-dose ensitrelvir with CYP3A substrates,well tolerated
